Each structure is given as a SMILES string.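 96-well plates; 48 h exposure; 5 concentrations. Endpoints by linear interpolation between flanking doses. Not reached: highest tested concentration assigned. GI50: concentration for 50% inhibition of growth.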 Active and inactive are the calls of the source. Cut-off read from the data, not from the text of the source: active = GI50 up to about 1.1 µM and inactive = higher.

Test systems include 786-0; A549; BT-549; HCC 2998; HL-60; HT-29; Hs-578T; KM-20L2; KM12; Malme-3M; OVCAR-3; OVCAR-4; OVCAR-8; RPMI-8226; RXF 393; SF-268; SK-OV-3; SW-620; UACC-62; UO-31.
What all share (experiment): NCI tumour cell line growth inhibition, 48 h

On to `CC1(C)C(=O)/C=C\C(=O)C(C)(C)C(=O)/C=C\C(=O)C(C)(C)C2=CC=C(O2)C(C)(C)C(=O)/C=C\C1=O`, for which the GI50 in the assay with 786-0 was 2.24 µM (inactive); in the assay with A549, 21.1 µM (inactive); in the assay with BT-549 it was 11.9 µM (inactive); in the assay with HCC 2998, 11.7 µM (inactive); in the assay on HL-60, 0.684 µM (active); with HT-29 it was 2.89 µM (inactive). Also, the GI50 in the assay with Hs-578T is 16.9 µM (inactive); in the assay with KM-20L2 it was 13.9 µM (inactive); with KM12, 12.7 µM (inactive); in the assay on Malme-3M it was 1.91 µM (inactive); with OVCAR-3, 3.27 µM (inactive); in the assay on OVCAR-4, 6.61 µM (inactive). For the same molecule, the GI50 in the assay with OVCAR-8 was 4.44 µM (inactive); in the assay on RPMI-8226, 0.789 µM (active); with RXF 393, 2 µM (inactive); in the assay on SF-268, 16.6 µM (inactive); in the assay on SK-OV-3, 15.9 µM (inactive); in the assay on SW-620, 1.66 µM (inactive). Further, the GI50 in the assay with UACC-62 is 5.07 µM (inactive); with UO-31, 14.5 µM (inactive).

Turning to `Cc1ccc(C(=O)N2CCN(C(=O)c3ccc(C)cc3)c3ccccc32)cc1`, the GI50 was 3.41 µM (inactive) with 786-0; 7.48 µM (inactive) in the assay with A549; > 100 µM (inactive) in the assay on BT-549; 6.58 µM (inactive) in the assay on HCC 2998; 0.767 µM (active) in the assay with HL-60; 2.8 µM (inactive) in the assay on HT-29. The GI50 was 2.47 µM (inactive) in the assay on Hs-578T; 3.28 µM (inactive) in the assay on KM-20L2; 3.29 µM (inactive) with KM12; 2.84 µM (inactive) in the assay with Malme-3M; 2.74 µM (inactive) with OVCAR-3; 11.4 µM (inactive) in the assay with OVCAR-4. Moreover, the GI50 with OVCAR-8 was 6.25 µM (inactive); in the assay with RPMI-8226, 3.03 µM (inactive); in the assay with RXF 393, 2.24 µM (inactive); with SF-268 it was 6.85 µM (inactive); in the assay with SK-OV-3 it was 2.89 µM (inactive); in the assay with SW-620, 2.93 µM (inactive). Besides, the GI50 is 2.01 µM (inactive) in the assay with UACC-62 and 4.76 µM (inactive) with UO-31.

For `O=C(O)CNS(=O)(=O)c1ccc(NC(=O)CI)cc1`, the GI50 was 14.9 µM (inactive) in the assay on 786-0; 91.2 µM (inactive) in the assay on A549; > 100 µM (inactive) in the assay on HCC 2998; 18.2 µM (inactive) in the assay on HL-60; 21.2 µM (inactive) in the assay with HT-29; 23.1 µM (inactive) with KM-20L2. For the same molecule, the GI50 in the assay with KM12 was 24.8 µM (inactive); in the assay on Malme-3M it was 18.8 µM (inactive); in the assay with OVCAR-3, 24 µM (inactive); in the assay on OVCAR-4, 18 µM (inactive); in the assay with OVCAR-8, 21.1 µM (inactive); in the assay on RPMI-8226, 15.7 µM (inactive). Also, the GI50 in the assay with RXF 393 is 15.5 µM (inactive); in the assay with SF-268, 18.8 µM (inactive); with SK-OV-3, 33.8 µM (inactive); in the assay with SW-620 it was 13.2 µM (inactive); in the assay on UACC-62, 25.1 µM (inactive); in the assay with UO-31, 20 µM (inactive).

Turning to `COC1O[C@@H]2COC(C)(C)O[C@@H]2C(=O)N1Nc1ccc([N+](=O)[O-])cc1` (stereo partly specified), the GI50 with 786-0 is 34.2 µM (inactive); with A549, > 100 µM (inactive); with HCC 2998 it was > 100 µM (inactive); in the assay on HL-60, > 100 µM (inactive); in the assay with HT-29 it was 63 µM (inactive); in the assay with KM-20L2 it was > 100 µM (inactive). The GI50 in the assay on KM12 is > 100 µM (inactive); in the assay with Malme-3M, > 100 µM (inactive); with OVCAR-3, > 100 µM (inactive); in the assay on OVCAR-4 it was > 100 µM (inactive); in the assay on OVCAR-8, > 100 µM (inactive); with RPMI-8226, 21 µM (inactive). The GI50 with RXF 393 was > 100 µM (inactive); in the assay with SF-268, > 100 µM (inactive); in the assay on SK-OV-3, > 100 µM (inactive); with SW-620, 25.1 µM (inactive); in the assay with UACC-62, > 100 µM (inactive); in the assay on UO-31, > 100 µM (inactive).

(Values after ChEMBL document CHEMBL1201862, “PubChem BioAssay data set” (2004).)
